The test system of one experiment is A3AR. Nature of the experiment: Northern blot analysis of A3AR mRNA in B16-F10 melanoma cells. Format: cell-based. The settings on record: B16-F10 melanoma cells treated with IB-MECA. The protocol: Total RNA was isolated from B16-F10 melanoma cells treated with IB-MECA, utilizing Tri-reagent (Sigma, Saint Louis). The samples were then subjected twice to phenol:chloroform extraction and washed with chloroform. RNA was precipitated with sodium acetate/ethanol following washing with ethanol, then denatured, separated (25 μg per lane) in 1.1% formaldehyde agarose gels and transferred to Hybond-N membrane. The 390 bp EcoRI fragment from A3AR cDNA clone of mouse (TAA3I.S), kindly supplied by Dr Kathia Ravid, was prepared by random-primed synthesis. Probes were used in RNA blot analysis at a hybridization temperature of 42° C. in the presence of 50% formamide.

The test system of another experiment is PKA and GSK-3β. Nature of the experiment: Receptor functionality: Western blot of PKA and GSK-3β in B16-F10 melanoma cells. In kind it is cell-based. The protocol: To detect the level of expression of the A3AR proteins Western blot analysis was performed. Cells were incubated in the presence and absence of IB-MECA (10 nM), MRS1523 (10 nM), Forskolin (50 nM), 8 Br cAMP (100 μM), Cycloheximide 20 μg/ml or MG 132 (20 nM) for different time periods at 37° C. Cells were then rinsed with ice-cold PBS and transferred to ice-cold lysis buffer (TNN buffer, 50 mM Tris buffer pH=7.5, 150 mM NaCl, NP 40). In the experiment examining the effect of trypsin on A3AR expression, cells were incubated with 0.5 ml of 0.25% trypsin for 5 minutes. The trypsinized cells were washed again with ice-cold PBS, harvested by centrifugation and subjected to lysis in TNN buffer. Cell debris was removed by centrifugation for 10 minutes, at 7500 xg. The supernatant was utilized for Western Blot analysis. Protein concentrations were determined using the Bio-Rad protein assay dye reagent. Equal amounts of the sample (50 μg) were separated by SDS-PAGE, using 12% polyacrylamide gels. The resolved proteins were then electroblotted onto nitrocellulose membranes (Schleicher & Schuell, Keene, NH, USA). Membranes were blocked with 1% bovine serum albumin and incubated with the desired primary antibody (dilution 1:1000) for 24 hours at 4° C. Blots were then washed and incubated with a secondary antibody for 1 hour at room temperature. Bands were recorded using BCIP/NBT color development kit (Promega, Madison, W1, USA). Data presented in the different figures are representative of at least three different experiments.
To test receptor functionality, the protein expression level of PKA and GSK-3β, which are modulated downstream to A3AR activation, was examined. Functional receptor sensitization by IB-MECA was observed after 15 and 60 minutes and was manifested by decreased PKA and increased GSK-3β levels. […] Indeed, the modulatory effect of IB-MECA on PKA and GSK-3β was reversed in the presence of the above agents (FIG. 8a, 8b and 8c).
On the technique in general: In western blotting, separated proteins are transferred to a membrane and probed.

For experiment [1], the system named is A3AR, A2AR, PI3K, PKB/Akt, IKKα/β, NF-κB, TNF-α, GSK-3β, caspase-3. The experiment in a line: Western blot of A3AR and downstream signaling proteins in DLN and synovial tissue of AIA rats. Format: in vivo. The protocol: AIA in Rats: Female Lewis rats, aged 8-12 weeks, obtained from Harlan Laboratories (Jerusalem, Israel), were injected subcutaneously (s.c.) at the tail base with 100 μl of suspension composed of incomplete Freund's adjuvant (IFA) with 10 mg/ml heat killed Mycobacterium tuberculosis, (Mt) H37Ra, (Difco, Detroit, USA). To assess the clinical disease activity score, the animals were inspected every second day for clinical arthritis. The scoring system ranged from 0-4 of each limb: 0-no arthritis; 1-redness or swelling of one toe/finger joint; 2-redness and swelling of more than one toe/finger joints; 3-the ankle and tarsal-metatarsal joints involvement; 4-entire paw redness or swelling. The arthritic score was calculated by adding the four individual legs' score to a maximum of 16. For histological scoring, Animals were sacrificed, the legs were removed up to the knee level, fixed in 10% formaldehyde, decalcified, dehydrated, paraffin-embedded, cut into 4 μm sections and stained by Hematoxylin-Eosin. The assessment of all pathologic findings were performed blind using semi-quantitative grading scales of 0 to 4 for the following parameters: a) extent of inflammatory cells' infiltration to the joint tissues; b) synovial lining cell hyperplasia; c) pannus formation; and d) joint cartilage layers destruction. A fifth parameter, bone damage and erosion, was graded 0-5: 0-normal; 1-minimal loss of cortical bone at a few sites; 2-mild loss of cortical trabecular bone; 3-moderate loss of bone at many sites; 4-marked loss of bone at many sites; 5-marked loss of bone at many sites with fragmenting and full thickness penetration of inflammatory process or pannus into the cortical bone The mean of all the histological parameters scores were designated “Histology Score”. TNF-α was measured in synovia, DLN and spleen tissues derived from control and CF101 treated rats. To detect the level of expression of TNF-α, WB analysis was performed. Spleen and DLN mononuclear cells and synovial tissue were rinsed with ice-cold PBS and transferred to ice-cold lysis buffer (TNN buffer, 50 mM Tris buffer pH=7.5, 150 mM NaCl, NP 40 0.5% for 20 minutes). Cell debris was removed by centrifugation for 10 minutes, at 7500 g. The supernatant was utilized for WB analysis. Protein concentrations were determined using the Bio-Rad protein assay dye reagent. Equal amounts of the sample (50 μg) were separated by SDS-PAGE, using 12% polyacrylamide gels. The resolved proteins were then electro-blotted onto nitrocellulose membranes (Schleicher & Schuell, Keene, NH, USA). Membranes were blocked with 1% bovine serum albumin and incubated with polyclonal goat anti-rat TNF-α antibodies (dilution 1:1000) (Santa Cruz Biotechnology Inc., CA, USA) for 24 hours at 4° C. Blots were then washed and incubated with rabbit anti-goat polyclonal antibodies for 1 hour at room temperature. Bands were recorded using BCIP/NBT color development kit (Promega, Madison, Wis., USA). Densitometry of protein expression was normalized against β-actin and expressed as % of control.
Adjuvant induced arthritis (AIA) was induced in rats as described above. Rats were treated orally twice daily with either (i) vehicle (these rats serving as control), (ii) 10 μg/kg IB-MECA or with (ii) the specific A3AR […] MRS 1220 followed 30 minutes later by IB-MECA. The […] were sacrificed on day 28 for histological scoring and measurement of signaling proteins and TNF-α.

Molecules are shown by their SMILES.

Consider `CNC(=O)[C@H]1O[C@@H](n2cnc3c(NCc4cccc(I)c4)ncnc32)[C@H](O)[C@@H]1O` [IB-MECA, 1-deoxy-1-[6[[(3-iodophenyl)methyl]amino]-9H-purine-9-yl]-N-methyl-β-D-ribofura-nuronaminde], for which, in the experiment with A3AR, the “A3AR mRNA expression level” value is recorded as “increase”. For the same compound, in the experiment with PKA and GSK-3β (after 15 and 60 minutes), the GSK-3β level entry is “increased” and the PKA level entry is “decreased”. Besides, in the experiment with PKA and GSK-3β (at 30 minutes), the GSK-3β level entry is “only slightly increased” and the PKA level entry was “stabilized”. In experiment [1] (DLN), the GSK-3β level result was “up-regulation”, the PI3K level entry is “down-regulation” and the caspase-3 level result is on record as “up-regulation”. Besides, in experiment [1] (DLN and synovial tissue), the IKKα/β level result was “down-regulation”, the NF-κB level entry is listed as “down-regulation” and the TNF-α level result was “down-regulation”. Also, in experiment [1] (DLN, Western blot), the “level of the A2 adenosine receptor (A2AR)” value is listed as “no effect” and the “level of the A3AR” value is listed as “down-regulation”. In experiment [1] (DLN, protein expression and activity), the PKB/Akt level result is reported as “down-regulation”.

The values are drawn from patent US20040229246A1, “Diagnostic markers for therapeutic treatment” (Can-Fite Biopharam Ltd., priority 2002, published 2004).
